Measured values reported in ChEMBL document CHEMBL5338820, “Discovery and Design of Novel Cyclic Peptides as Specific Inhibitors Targeting CCN2 and Disrupting CCN2/EGFR Interaction for Kidney Fibrosis Treatment” (J Med Chem, 2023).
Activity calls are given as the source filed them. The calls are words filed in the database; no cut-off is given here. Peptide text beside a SMILES is read from it.

How the values were obtained:
[1] = molecular target: T1, CCN2-EGFR (Homo sapiens) (UniProt P00533+P29279); assay: Inhibition of His-tagged full length human CCN2 FL domain/human Fc-tagged EGFR protein-protein interaction using TMB as chromogenic substrate at 100 uM incubated for 140 mins by microplate reader assay relative to control
T1 sequence (P00533 whole entry, looked up, one chain of several, the tested form may be a part): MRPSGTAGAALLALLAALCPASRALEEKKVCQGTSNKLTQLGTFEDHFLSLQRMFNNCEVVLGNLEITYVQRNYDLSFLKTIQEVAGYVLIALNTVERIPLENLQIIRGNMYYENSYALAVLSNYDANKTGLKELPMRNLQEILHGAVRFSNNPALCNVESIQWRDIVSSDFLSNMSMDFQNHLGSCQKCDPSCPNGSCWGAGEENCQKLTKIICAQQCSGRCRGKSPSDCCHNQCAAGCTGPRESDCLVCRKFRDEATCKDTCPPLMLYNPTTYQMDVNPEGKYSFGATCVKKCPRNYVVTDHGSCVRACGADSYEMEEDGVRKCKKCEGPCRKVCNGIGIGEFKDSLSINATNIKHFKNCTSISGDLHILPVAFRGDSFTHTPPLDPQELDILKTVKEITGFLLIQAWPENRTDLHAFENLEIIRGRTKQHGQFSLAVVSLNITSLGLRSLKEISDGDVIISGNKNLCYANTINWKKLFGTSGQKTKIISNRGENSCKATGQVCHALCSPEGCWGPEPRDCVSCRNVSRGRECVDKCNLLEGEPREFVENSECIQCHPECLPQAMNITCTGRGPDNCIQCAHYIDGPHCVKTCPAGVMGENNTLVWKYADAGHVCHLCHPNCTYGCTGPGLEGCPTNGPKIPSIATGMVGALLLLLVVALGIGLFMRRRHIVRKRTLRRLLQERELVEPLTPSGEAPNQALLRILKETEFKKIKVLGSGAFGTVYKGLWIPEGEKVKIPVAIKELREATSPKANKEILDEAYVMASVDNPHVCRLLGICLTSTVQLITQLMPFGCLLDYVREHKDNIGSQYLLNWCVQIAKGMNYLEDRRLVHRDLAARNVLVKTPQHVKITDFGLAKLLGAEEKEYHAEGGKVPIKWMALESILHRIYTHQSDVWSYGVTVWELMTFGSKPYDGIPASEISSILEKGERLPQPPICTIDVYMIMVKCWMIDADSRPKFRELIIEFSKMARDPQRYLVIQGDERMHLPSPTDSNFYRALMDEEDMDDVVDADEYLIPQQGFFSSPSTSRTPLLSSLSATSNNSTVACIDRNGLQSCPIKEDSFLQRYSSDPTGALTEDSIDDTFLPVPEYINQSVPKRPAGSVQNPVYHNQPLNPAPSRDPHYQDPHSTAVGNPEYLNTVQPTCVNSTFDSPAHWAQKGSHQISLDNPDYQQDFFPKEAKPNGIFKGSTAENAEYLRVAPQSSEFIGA

[2] = molecular target: T1, CCN2-EGFR (Homo sapiens); assay: Inhibition of His-tagged full length human CCN2 CT domain/human Fc-tagged EGFR protein-protein interaction using TMB as chromogenic substrate at 100 uM incubated for 140 mins by microplate reader assay relative to control
[3] = molecular target: T2, CCN family member 2 (Homo sapiens) (UniProt P29279); assay: Inhibition of recombinant human CCN2 CT domain expressed in human […] cells assessed as reduction in fibronectin synthesis at 100 uM incubated for 24 hrs by Western blotting assay; format: cell-based
T2 sequence (whole entry): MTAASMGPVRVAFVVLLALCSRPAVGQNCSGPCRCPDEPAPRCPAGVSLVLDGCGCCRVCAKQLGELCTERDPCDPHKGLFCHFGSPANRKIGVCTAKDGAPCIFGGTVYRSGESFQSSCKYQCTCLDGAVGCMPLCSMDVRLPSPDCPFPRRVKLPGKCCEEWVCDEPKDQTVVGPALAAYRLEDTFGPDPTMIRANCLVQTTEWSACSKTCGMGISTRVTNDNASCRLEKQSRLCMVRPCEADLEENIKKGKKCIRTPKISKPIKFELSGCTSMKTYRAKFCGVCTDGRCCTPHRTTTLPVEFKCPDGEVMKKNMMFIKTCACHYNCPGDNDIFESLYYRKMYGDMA

[4] = molecular target: T2, CCN family member 2 (Homo sapiens); assay: Inhibition of recombinant human CCN2 CT domain expressed in human […] cells assessed as reduction in COL1A1 synthesis at 100 uM incubated for 24 hrs by Western blotting assay; format: cell-based

| inhibition [1] [%] | inhibition [2] [%] | inhibition [3] | inhibition [4] | SMILES |
| --- | --- | --- | --- | --- |
| 70.6 | 61.9 | Active | Active | C[C@H](N)C(=O)N[C@@H](CC(=O)O)C(=O)N[C@H](C(=O)N[C@H](C(=O)N[C@@H](Cc1c[nH]cn1)C(=O)N[C@@H](Cc1c[nH]cn1)C(=O)N[C@@H](CCCNC(=N)N)C(=O)N1CCC[C@H]1C(=O)N[C@@H](Cc1c[nH]c2ccccc12)C(=O)N[C@H](C(N)=O)[C@@H](C)O)[C@@H](C)O)[C@@H](C)O (H-ADTTHHRPWT-NH2) |
| 63.7 | 65.8 | Active | Active | C[C@@H](O)[C@H](NC(=O)[C@H](Cc1c[nH]c2ccccc12)NC(=O)[C@@H]1CCCN1C(=O)[C@H](CCCNC(=N)N)NC(=O)[C@H](Cc1c[nH]cn1)NC(=O)[C@H](Cc1c[nH]cn1)NC(=O)[C@@H](NC(=O)[C@@H](NC(=O)[C@@H](N)CC(=O)O)[C@@H](C)O)[C@@H](C)O)C(N)=O (H-DTTHHRPWT-NH2) |
| 16 | 9.4 | inactive | inactive | C[C@@H](O)[C@H](NC(=O)[C@H](Cc1c[nH]c2ccccc12)NC(=O)[C@@H]1CCCN1C(=O)[C@H](CCCNC(=N)N)NC(=O)[C@H](Cc1c[nH]cn1)NC(=O)[C@@H](N)Cc1c[nH]cn1)C(N)=O (H-HHRPWT-NH2) |
| 13.9 | 7.9 | inactive | inactive | C[C@@H](O)[C@H](NC(=O)[C@H](Cc1c[nH]c2ccccc12)NC(=O)[C@@H]1CCCN1C(=O)[C@H](CCCNC(=N)N)NC(=O)[C@@H](N)Cc1c[nH]cn1)C(N)=O (H-HRPWT-NH2) |
| 68.8 | 67.4 | Active | Active | CC(C)C[C@H](N)C(=O)N[C@@H](C)C(=O)N[C@@H](CC(=O)O)C(=O)N[C@H](C(=O)N[C@H](C(=O)N[C@@H](Cc1c[nH]cn1)C(=O)N[C@@H](Cc1c[nH]cn1)C(=O)N[C@@H](CCCNC(=N)N)C(=O)N1CCC[C@H]1C(=O)N[C@@H](Cc1c[nH]c2ccccc12)C(=O)N[C@H](C(N)=O)[C@@H](C)O)[C@@H](C)O)[C@@H](C)O (H-LADTTHHRPWT-NH2) |
| 56.5 | 65.6 |  |  | CC(C)C[C@H](NC(=O)[C@@H](N)CC(C)C)C(=O)N[C@@H](C)C(=O)N[C@@H](CC(=O)O)C(=O)N[C@H](C(=O)N[C@H](C(=O)N[C@@H](Cc1c[nH]cn1)C(=O)N[C@@H](Cc1c[nH]cn1)C(=O)N[C@@H](CCCNC(=N)N)C(=O)N[C@@H](C)C(=O)N[C@@H](Cc1c[nH]c2ccccc12)C(=O)N[C@H](C(N)=O)[C@@H](C)O)[C@@H](C)O)[C@@H](C)O (H-LLADTTHHRAWT-NH2) |
| 8.7 | 10.7 |  |  | CC(C)C[C@H](NC(=O)[C@@H](N)CC(C)C)C(=O)N[C@@H](C)C(=O)N[C@@H](CC(=O)O)C(=O)N[C@H](C(=O)N[C@H](C(=O)N[C@@H](Cc1c[nH]cn1)C(=O)N[C@@H](Cc1c[nH]cn1)C(=O)N[C@@H](CCCNC(=N)N)C(=O)N1CCC[C@H]1C(=O)N[C@@H](C)C(=O)N[C@H](C(N)=O)[C@@H](C)O)[C@@H](C)O)[C@@H](C)O (H-LLADTTHHRPAT-NH2) |
| 13.5 | 14.2 |  |  | CC(C)C[C@H](NC(=O)[C@@H](N)CC(C)C)C(=O)N[C@@H](C)C(=O)N[C@@H](CC(=O)O)C(=O)N[C@H](C(=O)N[C@H](C(=O)N[C@@H](Cc1c[nH]cn1)C(=O)N[C@@H](Cc1c[nH]cn1)C(=O)N[C@@H](CCCNC(=N)N)C(=O)N1CCC[C@H]1C(=O)N[C@@H](Cc1c[nH]c2ccccc12)C(=O)N[C@@H](C)C(N)=O)[C@@H](C)O)[C@@H](C)O (H-LLADTTHHRPWA-NH2) |
| 12.5 | 11.5 |  |  | C[C@@H](O)[C@H](N)C(=O)N[C@@H](CCC(=O)O)C(=O)N[C@@H](Cc1c[nH]cn1)C(=O)N[C@@H](CCCNC(=N)N)C(=O)N1CCC[C@H]1C(=O)N[C@@H](Cc1c[nH]c2ccccc12)C(=O)N[C@H](C(N)=O)[C@@H](C)O (H-TEHRPWT-NH2) |
| 15.5 | 12.1 |  |  | C[C@@H](O)[C@H](N)C(=O)N[C@@H](Cc1c[nH]cn1)C(=O)N[C@@H](CCC(=O)O)C(=O)N[C@@H](CCCNC(=N)N)C(=O)N1CCC[C@H]1C(=O)N[C@@H](Cc1c[nH]c2ccccc12)C(=O)N[C@H](C(N)=O)[C@@H](C)O (H-THERPWT-NH2) |
| 12.4 | 61.9 |  |  | C[C@@H](O)[C@H](N)C(=O)N[C@@H](Cc1c[nH]cn1)C(=O)N[C@@H](Cc1c[nH]cn1)C(=O)N[C@@H](CCC(=O)O)C(=O)N1CCC[C@H]1C(=O)N[C@@H](Cc1c[nH]c2ccccc12)C(=O)N[C@H](C(N)=O)[C@@H](C)O (H-THHEPWT-NH2) |
| 14.4 | 65.8 | inactive | inactive | C[C@@H](O)[C@H](N)C(=O)N[C@@H](Cc1c[nH]cn1)C(=O)N[C@@H](Cc1c[nH]cn1)C(=O)N[C@@H](CCCCN)C(=O)N1CCC[C@H]1C(=O)N[C@@H](Cc1c[nH]c2ccccc12)C(=O)N[C@H](C(N)=O)[C@@H](C)O (H-THHKPWT-NH2) |
| 2.1 | 8.1 |  |  | C[C@@H](O)[C@H](N)C(=O)N[C@@H](Cc1c[nH]cn1)C(=O)N[C@@H](Cc1c[nH]cn1)C(=O)N[C@@H](CCC(N)=O)C(=O)N1CCC[C@H]1C(=O)N[C@@H](Cc1c[nH]c2ccccc12)C(=O)N[C@H](C(N)=O)[C@@H](C)O (H-THHQPWT-NH2) |
| 19.6 | 11.1 |  |  | C[C@@H](O)[C@H](N)C(=O)N[C@@H](Cc1c[nH]cn1)C(=O)N[C@@H](Cc1c[nH]cn1)C(=O)N[C@@H](CCCNC(=N)N)C(=O)N[C@@H](CCC(=O)O)C(=O)N[C@@H](Cc1c[nH]c2ccccc12)C(=O)N[C@H](C(N)=O)[C@@H](C)O (H-THHREWT-NH2) |
| 15 | 11 | inactive | inactive | C[C@@H](O)[C@H](N)C(=O)N[C@@H](Cc1c[nH]cn1)C(=O)N[C@@H](Cc1c[nH]cn1)C(=O)N[C@@H](CCCNC(=N)N)C(=O)N[C@@H](CCCCN)C(=O)N[C@@H](Cc1c[nH]c2ccccc12)C(=O)N[C@H](C(N)=O)[C@@H](C)O (H-THHRKWT-NH2) |
| 37.1 | 43.6 |  |  | CC(C)C[C@H](NC(=O)[C@H](CCCNC(=N)N)NC(=O)[C@H](Cc1c[nH]cn1)NC(=O)[C@H](Cc1c[nH]cn1)NC(=O)[C@@H](N)[C@@H](C)O)C(=O)N[C@@H](Cc1c[nH]c2ccccc12)C(=O)N[C@H](C(N)=O)[C@@H](C)O (H-THHRLWT-NH2) |
| 66.6 | 62 | Active | Active | C[C@@H](O)[C@H](N)C(=O)N[C@@H](Cc1c[nH]cn1)C(=O)N[C@@H](Cc1c[nH]cn1)C(=O)N[C@@H](CCCNC(=N)N)C(=O)N1CCC[C@H]1C(=O)N[C@@H](Cc1c[nH]c2ccccc12)C(=O)N[C@H](C(N)=O)[C@@H](C)O (H-THHRPWT-NH2) |
| 4.5 | 1.2 |  |  | C[C@@H](O)[C@H](N)C(=O)N[C@@H](Cc1c[nH]cn1)C(=O)N[C@@H](Cc1c[nH]cn1)C(=O)N[C@@H](CCCNC(=N)N)C(=O)N[C@@H](CCC(N)=O)C(=O)N[C@@H](Cc1c[nH]c2ccccc12)C(=O)N[C@H](C(N)=O)[C@@H](C)O (H-THHRQWT-NH2) |
| 59.7 | 63.4 | Active | Active | C[C@@H](O)[C@H](N)C(=O)N[C@@H](Cc1c[nH]cn1)C(=O)N[C@@H](CCCCN)C(=O)N[C@@H](CCCNC(=N)N)C(=O)N1CCC[C@H]1C(=O)N[C@@H](Cc1c[nH]c2ccccc12)C(=O)N[C@H](C(N)=O)[C@@H](C)O (H-THKRPWT-NH2) |
| 5.1 | 10.9 |  |  | C[C@@H](O)[C@H](N)C(=O)N[C@@H](Cc1c[nH]cn1)C(=O)N[C@@H](CCC(N)=O)C(=O)N[C@@H](CCCNC(=N)N)C(=O)N1CCC[C@H]1C(=O)N[C@@H](Cc1c[nH]c2ccccc12)C(=O)N[C@H](C(N)=O)[C@@H](C)O (H-THQRPWT-NH2) |
| 6.8 | 11.8 |  |  | C[C@@H](O)[C@H](N)C(=O)N[C@@H](CCC(N)=O)C(=O)N[C@@H](Cc1c[nH]cn1)C(=O)N[C@@H](CCCNC(=N)N)C(=O)N1CCC[C@H]1C(=O)N[C@@H](Cc1c[nH]c2ccccc12)C(=O)N[C@H](C(N)=O)[C@@H](C)O (H-TQHRPWT-NH2) |
| 68.1 | 60 | Active | Active | C[C@@H](O)[C@H](N)C(=O)N[C@H](C(=O)N[C@@H](Cc1c[nH]cn1)C(=O)N[C@@H](Cc1c[nH]cn1)C(=O)N[C@@H](CCCNC(=N)N)C(=O)N1CCC[C@H]1C(=O)N[C@@H](Cc1c[nH]c2ccccc12)C(=O)N[C@H](C(N)=O)[C@@H](C)O)[C@@H](C)O (H-TTHHRPWT-NH2) |
| 17.4 | 13.2 |  |  | C[C@@H](O)[C@@H]1NC(=O)[C@H](Cc2c[nH]c3ccccc23)NC(=O)[C@@H]2CCCN2C(=O)[C@H](CCCNC(=N)N)NC(=O)[C@H](CCCCN)NC(=O)[C@H](Cc2c[nH]cn2)NC(=O)[C@H]([C@@H](C)O)NC1=O (cyclo(HKRPWTT)) |
